Patent US7456216B2, “Methods for the preparation and formulation of l-carnitine valproate salts” (BioLink Life Sciences, Inc., priority 2007, dated 2008)

Experiments:
deacetylase = conditions: dose between 20 and 40 mg/kg; patients with cervical cancer; cited from earlier work
[1] = Storage in ambient atmosphere, gross weight monitored over 6 days (hygroscopicity); type: physicochemical; conditions: for Conclusion & Observations (hygroscopicity): 6 days in ambient atmosphere; for Change of net weight, final vs initial / Net weight, final: after 6 days in ambient atmosphere; for Net weight, initial: weighed portion before exposure to ambient atmosphere
Method: The effects of storage of the L-carnitine valproate salts of Examples 1 and 2 in ambient atmospheres were monitored for 6 days. For comparison, L-carnitine (Sigma Aldrich Chemical Co.), sodium valproate (Sigma Aldrich Chemical Co.), and divalproex sodium were also monitored in the same manner. The experiment was performed by weighing portions of each compound into a tared glass container and periodically monitoring the gross weight of the compound+container over a 6 day period.

[2] = Solubility in water or aqueous solutions; type: physicochemical
[3] = Storage in a closed and sealed container (stability, odor); type: physicochemical; conditions: for Odor detected during storage: trimethylamine odor indicates degradation
Description: L-Carnitine magnesium salts of the present invention are stable when stored in a closed and sealed container. […] Both L-carnitine calcium valproate and L-carnitine magnesium valproate are converted to the corresponding hydrates by exposure to water vapor in the atmosphere. Each hydrate has a characteristic melting point.

[4] = cited from earlier work
[5] = conventional L-carnitine; cited from earlier work

Compound	Conclusion & Observations (hygroscopicity) [1]	Net weight, final [1] [mg]	Net weight, initial [1] [mg]	also measured
magnesium 2-propylvalerate [magnesium valproate]				Deacetylase activity in tumor tissues (deacetylase): inhibits deacetylase activity and hyperacetylates histones in tumor tissues
L-carnitine magnesium valproate	Material absorbed water and was converted to a hydrate, which is further	163	142	Change of net weight, final vs initial [1]: (+15%); Solubility in water or aqueous solutions [2]: readily dissolved in water or aqueous solutions; Stability during storage [3]: stable; Odor detected during storage [3]: a slight odor of trimethylamine is detected
CCCC(CCC)C(=O)[O-].[Na+] [Sodium valproate, reference compound]	very hygroscopic.			
CCCC(CCC)C(=O)O [Divalproex sodium, reference compound]	Mass of the material did not change. Material is not hygroscopic.	100	100	
CCCC(CCC)C(=O)O [Valproic acid, 2-propylpentanoic acid]				Solubility in water [4]: very slightly soluble in water
L-carnitine calcium valproate	Appearance and mobility of the material did not change. Material absorbed water	202	194	Change of net weight, final vs initial [1]: (+5%); Stability during storage [3]: stable; Odor detected during storage [3]: no odor is detected
C[N+](C)(C)C[C@H](O)CC(=O)[O-] [L-Carnitine, L-(−)-Carnitine]	Material is hygroscopic.	>227	208	Bioavailability of L-carnitine [5]: 15-20 % of the administered dose
